“And” between values parts separate entries of the source, which are not always exact repeats. Equal entries are not always repeated.
Key:
Type in all cases: biochemical, Trichoderma atroviride
FgenL model RNA [1] = assay: TapeStation Assay, FgenL model RNA; set-up: Conc. FgenL#1 / Conc. FgenL#2: unit not given here; details: for % Control N = 1 / % Control N = 2 / % Control Average: FgenL RNA, 20 mM amino acids, 50 mM CAPS pH 11, 50° C. 15 min; for % Control N = 1 / % Control N = 2: vs Time 0; for % Control Average: vs Time 0, Avg N=2; for Conc. FgenL#1 / Conc. FgenL#2: intact FgenL RNA after 15 min at 50° C.; for Conc. FgenL#1: 20 mM amino acids in 50 mM CAPS pH 11, run #1; for Conc. FgenL#2: 20 mM amino acids in 50 mM CAPS pH 11, run #2
Description: (§1) These assays were performed with amino acids and compared to a no-degradation baseline control to gauge degree of protection imparted by the amino acid. Multiple functional assay approaches were used where differing endpoints were measured including a droplet digital PCR (ddPCR) assay where intact RNA sequence was quantitated, a size exclusion base hydrolysis degradation assay that used a size exclusion column to determine the degree of degradation occurring to an mRNA construct, and finally, a TapeStation assay that utilizes capillary electrophoresis and optical detection to measure intact RNA. […] Affinity selection by mass spectrometry (ASMS), native electrospray ionization mass spectrometry (nESI-MS) and nuclear magnetic resonance (NMR) may be used as several complementary approaches to ascertain compound binding to RNA. The latter techniques utilize MS to measure mass of bound compound alone (ASMS), or mass of RNA and bound compound (nESI-MS). The nESI-MS and NMR studies may be conducted to provide direct analytical quantification of resulting complex via measurement of mass (nESI-MS) or chemical shifts (NMR). The ASMS experiment is conducted to determine saturation binding of the compound to RNA where resulting apparent binding constants (KD,App) may be generated. Further descriptions of the functional and binding assays are provided in the section below.
(§2) In principle, samples are loaded to the instrument where electrophoresis separates component RNA's on the basis of mass, and subsequently analyzes these optically as they travel through the capillary.
(§3) RNA samples were diluted to the appropriate concentration to fall within the linear range of detection for the RNA ScreenTape Assay. Model Chi18 or FgenL RNAs were diluted to 50 ng/μL in 50 mM CAPS buffer pH 11. Amino acid stocks were made up in 50 mM CAPS pH 11 and re-adjusted to >pH 11 after solubilization. […] The samples were aliquoted to PCR tubes for each time point (Time 0 or 15 minutes). Degradation reaction: Samples were incubated at 50° C. for 0 to 15 minutes in a thermocycler, removed at the appropriate time point and placed on ice. Time 0 samples remained on ice.

FgenL model RNA [2] = details: percent protection, pH 11.0, 44° C., 16 hours, n = 2
Description: (§4) The ddPCR assays measure RNA integrity by converting intact RNA to cDNA by reverse transcription, then performing digital PCR in thousands of nanoliter-sized droplets for each sample. PCR is performed within each droplet, which allows for more sensitive detection of subtle changes in RNA concentration compared to traditional PCR or qPCR. Additionally, primers/probes specific to the 5′ end of the RNA/cDNA transcript(s) are used to assess fragment integrity—e.g. degraded RNA will have fewer 5′ positive droplets. The BioRad QX200 Droplet Digital PCR System was used for the ddPCR workflow.
(§5) Basic assay procedure: RNA samples (Chi18 or FgenL fragments) were diluted to 25 fg/μL or 10 fg/μL, respectively, in 50 mM […] buffer pH 11.0. Amino acid stocks were made up in 50 mM CAPS buffer, pH 11.0 and subsequently re-adjusted to pH 11.0, post solubilization. Amino acid stocks were tested in a dose-response format to determine EC50. An amino acid dilution plate containing a ˜300 mM (or appropriate) top-concentration of amino acid in 50 mM CAPS buffer was serially (half-log) diluted for 10 times. 0.6 μL of this compound dilution plate was spotted into a 96-well PCR plate (Thermo). Sample RNAs were added (6 μL) and incubated with test amino acid as described below.
(§6) Degradation reaction: Treated RNAs were incubated for 16 hours at 30° C. for Chi18 samples or 44° C. for FgenL samples. Upon completion of the degradation reaction, cDNA was made from the intact RNA by Reverse Transcription and ddPCR run for each sample (96 well plates). Positive 5′ droplet values were divided by the total accepted droplet values for each sample and a ratio value generated for each sample.
(§7) EC50 was determined by using a four parameter logistic equation: Y=A+((B−A)/(1+(C/X)D)); where Y is percent protection, X is compound concentration, A and B are minimum and maximum asymptotes, respectively, C is EC50, and D is Hill slope.

Chi18 model RNA [3] = assay: TapeStation Assay, Chi18 model RNA; set-up: Conc. chi18#1 / Conc. chi18#2: unit not given here; details: for % Control N = 1 / % Control N = 2 / % Control Avg.: Chi18 RNA, 20 mM amino acids, 50 mM CAPS pH 11, 50° C. 15 min; for % Control N = 1 / % Control N = 2: vs Time 0; for % Control Avg.: vs Time 0, Avg N=2; for Conc. chi18#1 / Conc. chi18#2: intact Chi18 RNA after 15 min at 50° C.; for Conc. chi18#1: 20 mM amino acids in 50 mM CAPS pH 11, run #1; for Conc. chi18#2: 20 mM amino acids in 50 mM CAPS pH 11, run #2
Description: as §1, §2, §3

Chi18 model RNA [4] = assay: Droplet Digital Polymerase Chain Reaction (ddPCR) Assay, Chi18; details: percent protection, pH 11.0, 30° C., 16 hours, n = 2
Description: as §4, §5, §6, §7

FgenL mRNA construct = assay: Size Exclusion Base Hydrolysis Degradation Assay, FgenL; details: 25 mM amino acid; for T0 R1 peak area at 250 nm: FgenL 0.1 mg/mL, 50 mM CAPS, T=0, replicate 1; for T2 Avg, peak area as percentage of T=0 / T2 R1 peak area at 250 nm / T10 Avg, peak area as percentage of T=0 / T10 R1 peak area at 250 nm / T24 Avg, peak area as percentage of T=0 / T24 R1 peak area at 250 nm / T0 Avg, peak area as percentage of T=0: FgenL; for T2 Avg, peak area as percentage of T=0 / T2 R1 peak area at 250 nm / T10 Avg, peak area as percentage of T=0 / T10 R1 peak area at 250 nm / T24 Avg, peak area as percentage of T=0 / T24 R1 peak area at 250 nm: 50 mM CAPS pH 11, room temperature; for T2 Avg, peak area as percentage of T=0 / T2 R1 peak area at 250 nm: 2 hrs; for T2 R1 peak area at 250 nm / T10 R1 peak area at 250 nm / T24 R1 peak area at 250 nm: replicate 1; for T10 Avg, peak area as percentage of T=0 / T10 R1 peak area at 250 nm: 10 hrs; for T24 Avg, peak area as percentage of T=0 / T24 R1 peak area at 250 nm: 24 hrs; for T0 Avg, peak area as percentage of T=0: T=0 (reference)
Description: Basic assay procedure: RNA samples were diluted to 1.0 mg/mL in DNAase/RNAase free water. Amino acids were dissolved in water to a stock solution of 100 mM and a solution of 500 mM CAPS pH 11 was used. The two mRNA constructs tested were FgenL and Chi18. Each individual sample volume was 50 μL. To determine the amount of 1 M NaOH needed to adjust the final pH to 11.0 after the addition of all sample components, the sample volume was increased 100 fold (5 mL), the volume of 1 M NaOH recorded and this value was translated back down to the 50 μL sample volume.
The mRNA and amino acid were allowed to incubate for one hour prior to the addition of CAPS pH 11. All steps of the assay were conducted at room temperature.
Degradation reaction: After the CAPS addition, the samples were injected onto the Waters H-Class UPLC system to record the first timepoint, T=O. This resulting chromatogram was processed by integrating the area of absorbance at 250 nm for the mRNA construct. Immediately following this timepoint, the pH was adjusted to 11. Subsequent time points (2 hrs, 10 hrs, and 24 hrs) recorded the Absorbance Units (peak area) at 250 nm as a percentage of the peak area determined at T=O. Integration of the chromatogram for subsequent timepoints was conducted by analyzing the area of absorbance at 250 nm contained within the same time window in which the peak eluted in T=0 for the 100% intact mRNA.

Row | Structure (SMILES) | % Control N = 1 (FgenL model RNA [1]) [%] | % Control N = 2 (FgenL model RNA [1]) [%] | % Control Average (FgenL model RNA [1]) [%] | Conc. FgenL#1 (FgenL model RNA [1]) | Conc. FgenL#2 (FgenL model RNA [1]) | EC50 (FgenL model RNA [2]) [mM] | % Control N = 1 (Chi18 model RNA [3]) [%] | % Control N = 2 (Chi18 model RNA [3]) [%] | % Control Avg. (Chi18 model RNA [3]) [%] | Conc. chi18#1 (Chi18 model RNA [3]) | EC50 (Chi18 model RNA [4]) [mM] | T0 R1 peak area at 250 nm (FgenL mRNA construct) | T2 Avg, peak area as percentage of T=0 (FgenL mRNA construct) [%] | T2 R1 peak area at 250 nm (FgenL mRNA construct) | T10 Avg, peak area as percentage of T=0 (FgenL mRNA construct) [%] | T10 R1 peak area at 250 nm (FgenL mRNA construct) | T24 Avg, peak area as percentage of T=0 (FgenL mRNA construct) [%] | T24 R1 peak area at 250 nm (FgenL mRNA construct) | T0 Avg, peak area as percentage of T=0 (FgenL mRNA construct) [%] | Conc. chi18#2 (Chi18 model RNA [3]) | other results
1 | N[C@@H](Cc1c[nH]c2ccccc12)C(=O)O [Tryptophan] | 3.5 | 1.5 | 2.5 | 1.21 | 0.51 | > 30 | 2.9 | 2.9 | 2.9 | 1.57 | > 30 | 15191 | 30.2 | 4991 | 0.0 | 0 | 0.0 | 0 | 100.0 |  | 
2 | N[C@@H](CS)C(=O)O [Cysteine] | 4.9 | 5.9 | 5.4 | 1.7 | 2.05 | > 30 | 4.5 | 3.5 | 4.0 | 2.39 | > 30 |  |  |  |  |  | 0.0 | 0 | 100.0 | 1.85 | T0 R1 peak area at 250 nm (FgenL mRNA construct; listed as Cys): 23851 and 18041; T2 R1 peak area at 250 nm (FgenL mRNA construct; listed as Cys): 17633 and 6085; T2 Avg, peak area as percentage of T=0 (FgenL mRNA construct; listed as Cys): 58.8% and 30.1%; T10 R1 peak area at 250 nm (FgenL mRNA construct; listed as Cys): 3767 and 0; T10 Avg, peak area as percentage of T=0 (FgenL mRNA construct; listed as Cys): 8.8% and 0.0%
3 | NCC(=O)O [Glycine] | 39.4 | 37.2 | 38.3 | 13.6 | 12.9 | > 30 | 42.0 | 51.4 | 46.7 | 22.4 | 15 | 18897 | 29.3 | 3657 | 0.0 | 0 | 0.0 | 0 | 100.0 | 27.2 | 

Reference: US20240122865A1, “Methods of Protecting RNA” (Pfizer Inc., priority 2021, published 2024)
